Measured values taken from publication PMC7938888, “Antidepressant drugs act by directly binding to TRKB neurotrophin receptors” (Cell, 2021).

How the values were obtained:
[1] = tested on: mice; assay: Object location memory (OLM) test; type: in vivo, mouse; details: wild-type mice, pravastatin co-treatment
Description: Object-location memory (OLM): this test was performed in a square arena (28cm side) with opaque walls containing cues (black stripes or spots). The adult male and female mice (18-22 weeks old) were placed for 3 consecutive days (15min per session) in the arena with two identical objects (table tennis balls glued to caps of 50ml Falcon tubes) in the same position throughout the sessions (pretest).

[2] = tested on: Sprague-Dawley rats; assay: BDNF-induced LTP in dentate gyrus of anesthetized rats; type: in vivo, rat; details: pravastatin 10 mg/kg/day/ in drinking water
Description: In vivo electrophysiology. Intrahippocampal BDNF infusion was performed as described previously ([Messaoudi et al., 1998]). The experiments were carried out on 20 adult male Sprague-Dawley rats (15 weeks old, Janvier, France). Rats were housed in the animal facility for 1-week prior to the start of drug administration. […]
For electrophysiological experiments, rats were anesthetized with an intraperitoneal injection of urethane (U2500, Sigma-Aldrich) 1.5 g/kg body weight, positioned in a stereotaxic frame. The body temperature was constantly monitored and maintained at 37°C with an electric heating pad. Holes were drilled in the skull and a concentric bipolar stimulating electrode (Tip separation 500micrometers; SNEX 100; Rhodes Medical Instruments, Woodland Hills, CA) was positioned in the angular bundle for stimulation of the medial perforant path (7.9 mm posterior to bregma, 4.2 mm lateral to the midline, and 2.5 mm below the dura. […]
Responses were allowed to stabilize for 1 hour at a stimulation intensity that produced a population spike 30% of maximum. […] Evoked responses were recorded for 120 min post infusion. Recorded field potentials were amplified, filtered (0.1 Hz to 10 kHz), and digitized (25 kHz). Electrophysiological data was analyzed using Datawave Technologies Software company. […]

[3] = tested on: TRKB:PLC-γ1 interaction; assay: TRKB:PLC-γ1 interaction ELISA in cortical cells; type: cell-based, rat; details: pravastatin 1 μM/3 days
Description: The TRKB:pY (phosphorylated TRKB), TRKB:PLC-γ1, PLC-γ1:pTRKB.Y816 interactions and were determined by ELISA, based on the general method described in literature ([Antila et al., 2014]; [Fred et al., 2019]), with minor adjustments. Briefly, white 96-well plates (OptiPlate 96F-HB, Perkin Elmer) were coated with capturing anti-TRKB or PLC-γ1 antibody (1:1000) in carbonate buffer (pH = 9.8) overnight (ON) at 4°C. Following a blocking step with 2%BSA in TBS-T (2 h, RT), samples were incubated ON at 4°C. The incubation with antibody against pTRKB.Y816, PLC-γ1 or pY (1:2000, ON, 4°C) was followed by HRP-conjugated anti-Rb IgG (1:5000, 2h, RT) or HRP-conjugated streptavidin (1:10000, 2h, RT). Finally, the chemiluminescent signal generated by the reaction with ECL was analyzed in a plate reader (Varioskan Flash, Thermo Scientific).

[4] = tested on: E18 cortical cells; assay: Cell viability (CellTiterGlo) of cortical cells; type: cell-based, rat; details: pravastatin 2 μM for 5 days
Description: The cell viability assay was performed using CellTiterGlo (#G7571; Promega) according to manufacturer’s instructions. Briefly, equal amounts of medium and the mixture of regents A and B were added to the E18 cortical cells (DIV8) cultivated in clear bottom 96-well plates and incubated for 40min. The luminescence was analyzed in a plate reader.

[5] = tested on: hippocampal cells; assay: BDNF-induced neurite branching in hippocampal cells (Sholl analysis); type: cell-based, rat; details: pravastatin 1 μM/3 days, BDNF 10 ng/ml/3 days
Description: MG87.TRKB or primary cultured cortical cells were fixed with 4% paraformaldehyde in PBS, and unspecific binding sites were blocked with a blocking buffer (5% normal donkey serum, 1% Bovine serum albumin, 0.1% gelatin, 0.1% Triton X-100, 0.05% Tween-20 in PBS). The MG87.TRKB cells were stained with anti-GFP, while primary cultures were incubated with anti-actin. The fluorescence was obtained following incubation with secondary antibodies. The coverslips were mounted with Dako Fluorescence Mounting Medium (#S3023). Images were acquired with Zeiss LSM710 confocal microscope (63x oil objective).
For Sholl analysis of cultured hippocampal cells, confocal images were processed using FIJI ImageJ (NIH software), and the number of branches in the 80-μm range from the cell soma were counted using FIJI plugin.

[6] = molecular target: T1, TRKA (Homo sapiens, UniProt P04629); assay: Cell-free ligand binding assay, TRKA from MG87 cells; details: compared to TRKB
T1 construct: expressed in transfected cells; host or cells: MG87.TRKA (NIH 3T3 mouse fibroblasts stably expressing TRKA)
T1 sequence (P04629 33-796): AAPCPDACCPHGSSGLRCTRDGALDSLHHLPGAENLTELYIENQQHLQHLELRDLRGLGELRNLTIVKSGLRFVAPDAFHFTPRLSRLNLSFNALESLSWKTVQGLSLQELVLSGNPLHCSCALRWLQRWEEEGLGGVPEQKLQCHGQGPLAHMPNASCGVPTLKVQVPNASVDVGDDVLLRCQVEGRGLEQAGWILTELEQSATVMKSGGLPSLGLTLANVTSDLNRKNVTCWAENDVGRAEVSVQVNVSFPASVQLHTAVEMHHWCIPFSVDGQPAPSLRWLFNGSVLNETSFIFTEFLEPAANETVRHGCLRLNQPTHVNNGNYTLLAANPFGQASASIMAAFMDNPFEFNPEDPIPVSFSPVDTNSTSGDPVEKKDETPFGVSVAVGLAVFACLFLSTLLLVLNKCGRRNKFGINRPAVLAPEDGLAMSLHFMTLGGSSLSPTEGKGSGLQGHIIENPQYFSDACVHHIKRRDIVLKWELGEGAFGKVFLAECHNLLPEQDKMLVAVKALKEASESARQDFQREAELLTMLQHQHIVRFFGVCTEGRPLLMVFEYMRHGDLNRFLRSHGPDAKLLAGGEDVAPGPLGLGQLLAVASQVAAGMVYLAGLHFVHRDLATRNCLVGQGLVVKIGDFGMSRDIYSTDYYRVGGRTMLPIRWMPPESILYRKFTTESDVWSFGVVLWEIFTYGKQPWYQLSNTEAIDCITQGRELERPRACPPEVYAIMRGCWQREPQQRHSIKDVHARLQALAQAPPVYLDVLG

[7] = molecular target: T2, TRKB (Mus musculus, UniProt P15209); assay: In situ proximity ligation assay (PLA) in TRKB-expressing N2A cells; type: cell-based; parameters: expressed in transfected cells; host or cells: N2A; details: biotinylated fluoxetine 10 μM/15 min
T2 sequence (P15209 32-821): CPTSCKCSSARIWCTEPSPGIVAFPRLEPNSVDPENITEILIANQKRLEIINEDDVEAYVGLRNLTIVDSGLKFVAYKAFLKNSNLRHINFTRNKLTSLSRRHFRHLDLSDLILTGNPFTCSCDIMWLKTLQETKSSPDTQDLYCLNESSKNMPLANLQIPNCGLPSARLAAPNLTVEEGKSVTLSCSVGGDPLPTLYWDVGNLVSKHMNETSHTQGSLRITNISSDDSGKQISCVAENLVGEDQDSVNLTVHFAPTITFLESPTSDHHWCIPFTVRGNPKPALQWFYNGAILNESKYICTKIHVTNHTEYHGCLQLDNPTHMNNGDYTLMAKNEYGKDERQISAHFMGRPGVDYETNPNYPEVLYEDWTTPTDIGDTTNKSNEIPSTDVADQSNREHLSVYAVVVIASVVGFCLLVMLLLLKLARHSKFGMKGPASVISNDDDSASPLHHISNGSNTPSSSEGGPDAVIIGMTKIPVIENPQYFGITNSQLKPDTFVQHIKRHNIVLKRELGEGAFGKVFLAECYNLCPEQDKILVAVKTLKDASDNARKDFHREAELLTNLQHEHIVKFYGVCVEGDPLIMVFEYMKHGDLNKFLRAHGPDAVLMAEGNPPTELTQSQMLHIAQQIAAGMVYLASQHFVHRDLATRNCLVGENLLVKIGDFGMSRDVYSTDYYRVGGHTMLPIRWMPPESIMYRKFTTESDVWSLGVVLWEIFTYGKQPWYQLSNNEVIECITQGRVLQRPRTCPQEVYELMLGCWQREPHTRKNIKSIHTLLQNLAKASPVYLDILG
Description: Proximity ligation assay was done with Duolink In Situ Red Starter Kit Mouse/Goat (#DUO92103, Sigma-Aldrich), following manufacturer’s instructions. […] Cells were fixed with PFA 4% for 15 min, washed, and incubated in Duolink blocking buffer for 1h at 37°C. Then, the coverslips were incubated with streptavidin-conjugated HRP (1:5000 in Duolink antibody diluent) for 45 min at room temperature. After washing twice in Duolink washing buffer A, samples were incubated overnight at 4°C with a mix of goat anti-TRKB (1:1000, #AF1494, R&D System) and mouse anti-HRP (1:1000, #200-3138-0100, Rockland Immunochemicals) diluted in Duolink antibody diluent. After washing in Duolink washing buffer A, samples were incubated for 1h at 37°C with a mix of minus and plus probes diluted 1:5 in Duolink antibody diluent. Then, ligation of probes with connector oligo was done by washing the samples in washing buffer A, and incubating for 30min at 37°C with ligase (25 U/ml) diluted in the Duolink ligation buffer. Amplification was done by washing the samples in the washing buffer A, and incubating for 100min at 37°C with polymerase (125 U/ml) diluted in the amplification buffer. Coverslips were washed in buffer B, then in buffer B diluted 1:100 in milliQ water, and mounted in Duolink in situ mounting medium with DAPI. All incubation steps were done in a humidified chamber. […]

[8] = molecular target: T2, TRKB; assay: Cell-free ligand binding assay on immobilised TRKB from HEK293T lysates; parameters: wild-type GFP-tagged full length TRKB or the GFP-tagged Y433F TRKB mutant; host or cells: HEK293T; details: read-out: Kd of biotinylated FLX binding to immunoprecipitated TRKB; biotinylated ligand 0-100 μM
Description: The cell-free assays (binding assays) were performed in white 96-well plates, based on the protocol used for western-blotting or ELISA ([Baeza-Raja et al., 2016]; [Das et al., 2015]). The plates were precoated with anti-GFP, anti-FLAG, anti-TRK or anti-TRKB antibody (1:1000) in carbonate buffer (pH 9.8), ON at 4°C. Following blocking with 3% BSA in PBS buffer (2 h at RT), 120 ug of total protein from each sample (of lysates from HEK293T cells transfected to overexpress GFP-TRKB.wt or GFP-TRKB.Y433F) were added and incubated overnight at 4°C under agitation. […] The luminescence was determined via HRP-conjugated streptavidin (1:10000, 1h, RT) activity reaction with ECL by a plate reader. The luminescence signal from blank wells (containing all the reagents but the sample lystates, substituted by the blocking buffer) was used as background. The specific signal was then calculated by subtracting the values of blank wells from the values of the samples with matched concentration of the biotinylated ligand. For Figure 2E, the precipitated TRKB.wt or Y433F was incubated with tritiated imipramine (0-30μM) and the radioactive emission of the ligand was determined by scintillation (OptiPhase Supermix cocktail: #1200-439; MicroBeta2, Perkin-Elmer). The scintillation signal from blank wells was used as background, and the specific signal was then calculated by subtracting the values of blank wells from the values of the samples with matched concentration of the radioactive ligand.

| SMILES | effect on R,R-HNK-improved object location memory [1] | effect on BDNF-induced increase in synaptic strength (LTP) [2] | effect on BDNF-induced TRKB-PLC-γ1 interaction [3] | neuronal survival [4] | effect on BDNF-induced neurite branching [5] | interaction of biotinylated fluoxetine with TRKA [6] | PLA signal between biotinylated FLX and TRKB [7] | Kd [8] [nM] |
| --- | --- | --- | --- | --- | --- | --- | --- | --- |
| CC[C@H](C)C(=O)O[C@H]1C[C@H](O)C=C2C=C[C@H](C)[C@H](CC[C@@H](O)C[C@@H](O)CC(=O)O)[C@H]21 [pravastatin] | prevented | partially prevented | prevented | reduced neuronal survival | prevented | – | – | – |
| CN(CCC(Oc1ccc(C(F)(F)F)cc1)c1ccccc1)C(=O)CCOCCOCCOCCOCCNC(=O)CCCC[C@@H]1SC[C@@H]2NC(=O)N[C@@H]21 (some centres unmarked) [biotinylated FLX] | – | – | – | – | – | negligible | robust PLA signal | 2420 |
